Among the test systems are SW-620; RPMI-8226; OVCAR-5; MDA-MB-231; HT-29; MDA-MB-435; ACHN; UACC-62; A498; NCI-H226; RXF 393; K562; SK-MEL-28; SR; SK-MEL-5; MDA-N; Malme-3M; HOP-62; HCC 2998; OVCAR-4.
What all share (experiment): growth of human tumour cells (NCI), 48 h

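96-well plates; 48 h exposure; 5 concentrations. Endpoints by linear interpolation between flanking doses. Not reached: highest tested concentration assigned. GI50 = concentration required for 50% inhibition of growth.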 Calls of active or inactive are those of the source. No stated cut-off is given here; in the data, active = GI50 up to about 1.1 µM and inactive = higher. A value given as a limit tells only on which side of the number the result lay.

Regarding `O=C(CCCN1CCC(Nc2ccc(F)cc2)(c2nnnn2C2CCCCC2)CC1)c1ccc(F)cc1`, the GI50 was 22.5 µM (inactive) with SW-620; 5.42 µM (inactive) in the assay with RPMI-8226; 15.7 µM (inactive) with OVCAR-5; 16.6 µM (inactive) in the assay on MDA-MB-231; 8.57 µM (inactive) in the assay with HT-29; 16.7 µM (inactive) in the assay with MDA-MB-435. Further, the GI50 was 10.6 µM (inactive) with ACHN; 3.3 µM (inactive) with UACC-62; 3.79 µM (inactive) with A498; 17.2 µM (inactive) in the assay on NCI-H226; 12.6 µM (inactive) with RXF 393; 3.98 µM (inactive) with K562. In addition, the GI50 was 16.2 µM (inactive) in the assay on SK-MEL-28; 11.7 µM (inactive) in the assay with SR; 20.7 µM (inactive) with SK-MEL-5; 15.5 µM (inactive) in the assay with MDA-N; 29.2 µM (inactive) in the assay with Malme-3M; 16.9 µM (inactive) with HOP-62. The results for the GI50 in the assay on HCC 2998 and in the assay with OVCAR-4 were 16.3 µM (inactive) and 12.9 µM (inactive), respectively.
Turning to `COC1N(C2CC(O)C(CO)O2)C(=O)NC(=O)C1(F)Br` (centres undefined), the GI50 was 32.8 µM (inactive) in the assay with SW-620; 19.3 µM (inactive) with RPMI-8226; 77.8 µM (inactive) with OVCAR-5; > 57.1 µM (inactive) with MDA-MB-231; 20 µM (inactive) in the assay on HT-29; 39.6 µM (inactive) in the assay on MDA-MB-435. Also, the GI50 in the assay with ACHN is 1.88 µM (inactive); in the assay on UACC-62, 4.27 µM (inactive); with A498, 9.29 µM (inactive); with NCI-H226, > 50 µM (inactive); with RXF 393 it was 46.7 µM (inactive); in the assay on K562 it was 36.8 µM (inactive). Further, the GI50 was 9.86 µM (inactive) with SK-MEL-28; 6.18 µM (inactive) in the assay on SR; 7.66 µM (inactive) in the assay with SK-MEL-5; 18.7 µM (inactive) in the assay with MDA-N; 15.1 µM (inactive) in the assay on Malme-3M; 1.45 µM (inactive) in the assay on HOP-62. Further, the GI50 in the assay on HCC 2998 was 0.887 µM (active); with OVCAR-4 it was > 50 µM (inactive).
For the molecule `CCCCOC(=O)NC(Nc1ccc(S(=O)(=O)Nc2ccc(OC)nn2)cc1)(C(F)(F)F)C(F)(F)F`, the GI50 in the assay on SW-620, in the assay with RPMI-8226, in the assay on OVCAR-5, in the assay on MDA-MB-231, with HT-29 and in the assay with MDA-MB-435 was > 100 µM (inactive) each time. For the same molecule, the GI50 in the assay on ACHN, in the assay on UACC-62, in the assay with A498, with NCI-H226, in the assay with RXF 393 and in the assay with K562 was > 100 µM (inactive) in each case. For the same molecule, the GI50 in the assay on SK-MEL-28, in the assay on SR, in the assay with SK-MEL-5, in the assay on MDA-N, in the assay with Malme-3M and in the assay on HOP-62 was > 100 µM (inactive) each time. Also, the GI50 with HCC 2998 and in the assay on OVCAR-4 was > 100 µM (inactive) each time.
For the molecule `O=P(Nc1ccccc1)(Oc1ccccc1)N1CCN(c2ccccc2)CC1` (centres undefined), the GI50 was 25.4 µM (inactive) in the assay on SW-620; 40.7 µM (inactive) with RPMI-8226; 17.9 µM (inactive) in the assay with OVCAR-5; 14.9 µM (inactive) with MDA-MB-231; 15.8 µM (inactive) in the assay with HT-29; 20.8 µM (inactive) with MDA-MB-435. The GI50 is 22.4 µM (inactive) in the assay with ACHN; 12.7 µM (inactive) in the assay with UACC-62; 20.2 µM (inactive) in the assay on A498; 22.3 µM (inactive) in the assay with NCI-H226; 18.2 µM (inactive) in the assay on RXF 393; 49.1 µM (inactive) in the assay with K562. For the same molecule, the GI50 in the assay with SK-MEL-28 was 19.7 µM (inactive); with SR it was 34.4 µM (inactive); with SK-MEL-5 it was 19.4 µM (inactive); in the assay with MDA-N, 16.9 µM (inactive); with Malme-3M it was 17.2 µM (inactive); in the assay on HOP-62 it was 18 µM (inactive). The GI50 in the assay with HCC 2998 is 16.3 µM (inactive); in the assay with OVCAR-4, 25.5 µM (inactive).
`Cc1cc(=O)nc(Sc2ccc([N+](=O)[O-])cc2[N+](=O)[O-])[nH]1`: the GI50 with SW-620 was 3.72 µM (inactive); in the assay with RPMI-8226 it was 3.9 µM (inactive); with OVCAR-5 it was 17.9 µM (inactive); with MDA-MB-231, 23.2 µM (inactive); with HT-29, 3.55 µM (inactive); in the assay with MDA-MB-435, 25.6 µM (inactive). The GI50 is 19.8 µM (inactive) in the assay on ACHN; 17.3 µM (inactive) in the assay with UACC-62; > 100 µM (inactive) in the assay with A498; 19.7 µM (inactive) with NCI-H226; 12.9 µM (inactive) in the assay with RXF 393; 3.4 µM (inactive) in the assay with K562. In addition, the GI50 in the assay with SK-MEL-28 was 20 µM (inactive); in the assay with SR it was 6.27 µM (inactive); in the assay on SK-MEL-5, 1.75 µM (inactive); in the assay with MDA-N, 16.7 µM (inactive); with Malme-3M, 17.3 µM (inactive); with HOP-62, 24.5 µM (inactive). Besides, the GI50 was 16.3 µM (inactive) in the assay on HCC 2998 and > 39.4 µM (inactive) in the assay with OVCAR-4.
Consider `C=CCN1CCC(c2cc(C(=O)OCC)[nH]c2-c2cc(C)no2)C1=O` (centres undefined), for which the GI50 in the assay with SW-620, in the assay on RPMI-8226, in the assay with OVCAR-5, in the assay on MDA-MB-231, in the assay with HT-29 and in the assay with MDA-MB-435 was > 100 µM (inactive) in each case. Besides, the GI50 in the assay with UACC-62, with A498, in the assay on NCI-H226, with RXF 393, in the assay on K562 and in the assay with SK-MEL-28 was > 100 µM (inactive) each time. The GI50 is 43.8 µM (inactive) in the assay on SR; > 100 µM (inactive) in the assay on SK-MEL-5; > 100 µM (inactive) in the assay on MDA-N; > 100 µM (inactive) with Malme-3M; > 100 µM (inactive) in the assay with HOP-62; > 100 µM (inactive) in the assay on HCC 2998. Moreover, in the assay with OVCAR-4, the GI50 is > 100 µM (inactive).
As to `C=CCc1cc(-c2cc(CC=C)c(O)c(CN(CC)CC)c2)cc(CN(CC)CC)c1O`, the GI50 is 25.5 µM (inactive) with SW-620; 27.5 µM (inactive) in the assay with RPMI-8226; 18.8 µM (inactive) with OVCAR-5; 26 µM (inactive) in the assay with MDA-MB-231; 15.7 µM (inactive) in the assay on HT-29; 37.2 µM (inactive) in the assay with MDA-MB-435. In addition, the GI50 was 80 µM (inactive) with ACHN; 22.2 µM (inactive) in the assay with UACC-62; > 100 µM (inactive) in the assay with A498; 48.9 µM (inactive) with NCI-H226; 21.4 µM (inactive) in the assay with RXF 393; 26.1 µM (inactive) in the assay on K562. Also, the GI50 with SK-MEL-28 was 28.6 µM (inactive); in the assay with SR, 13.5 µM (inactive); in the assay with SK-MEL-5, 11.1 µM (inactive); in the assay on MDA-N, 31.4 µM (inactive); with Malme-3M, 16.8 µM (inactive); in the assay on HOP-62 it was 47.4 µM (inactive). The GI50 in the assay with HCC 2998 is 29 µM (inactive); with OVCAR-4, > 100 µM (inactive).
